Read-outs that look alike come from different tables or passages of the source.
Assays:
wildtype Taspase 1 = target: T1, wildtype Taspase 1 (Homo sapiens, UniProt Q9H6P5); experiment: Recombinant cleavage assay with GST-MLL2700–2850-GFP-His substrate; type: biochemical; settings: for IC50: ligand conc. 10 - 100 µM, 200 nM Taspase 1, 5 µM substrate, n = 3, read-out: IC50 TW (recombinant cleavage, full-length protein); for Difference in inhibitory activity between E and Z isomers (times greater potency of E isomer): particularly at 50 μM
T1 sequence (Q9H6P5 1-233 limits assumed): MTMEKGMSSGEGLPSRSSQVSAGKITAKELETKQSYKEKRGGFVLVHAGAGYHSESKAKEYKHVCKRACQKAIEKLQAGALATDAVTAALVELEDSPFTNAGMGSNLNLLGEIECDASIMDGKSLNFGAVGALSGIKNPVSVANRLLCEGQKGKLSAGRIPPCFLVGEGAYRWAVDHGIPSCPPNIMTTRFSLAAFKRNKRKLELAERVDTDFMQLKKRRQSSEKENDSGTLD
T1 sequence (Q9H6P5 234-420 limits assumed): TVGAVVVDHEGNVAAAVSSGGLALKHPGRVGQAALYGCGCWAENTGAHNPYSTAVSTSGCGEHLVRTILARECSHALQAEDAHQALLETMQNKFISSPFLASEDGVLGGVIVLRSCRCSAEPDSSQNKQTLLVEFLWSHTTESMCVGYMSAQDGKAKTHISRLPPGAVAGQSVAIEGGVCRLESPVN
Procedure: The recombinant cleavage assay employing the recombinant fusion protein GST-MLL2700–2850-GFP-His, which contains the CS2 cleavage site of the Mixed-lineage leukemia (MLL) protein as a substrate for Taspase 1, was performed as described.[9,10]
Given that Taspase 1's active site is positioned directly at the base of the loop harboring the bipartite NLS (Fig. 1A, and Fig. S1), it is reasonable to expect that our photoswitchable tweezer constructs, which recognize this signal, might also influence proteolytic activity - similar to the inhibition observed with our “first-generation” multivalent ligands.[10] In principle the presence of a sterically demanding artificial ligand may hinder or even completely block substrate binding and subsequent cleavage. To assess this, we employed a well-established in vitro cleavage assay using a recombinant, truncated fusion protein harboring the second cleavage site (CS2) of the Mixed Lineage Leukemia 1 (MLL1) protein, a bona fide Taspase 1 substrate.[39] In this assay, the cleaved and uncleaved substrate fractions of the GST-MLL2700–2850-GFP-His substrate were separated on a Coomassie-stained gel, and signal intensities of the different cleavage bands were quantified (Fig. 7, Fig. S8, and Fig. S9). The addition of recombinant, proteolytically active Taspase 1 (200 nM) led to efficient substrate cleavage, which was inhibited by all photoswitchable tweezer constructs in a concentration-dependent manner. IC50 values for the full series of switchable tweezer constructs ranged from 20 to 50 μM, with measurements taken separately for both E and Z isomers Fig. (S9).
Fig. 7 Switchable tweezer constructs interfere with Taspase 1 proteolytic activity. Cleavage assay utilizing the cleavage site CS2 from the natural substrate MLL (GST-MLL2700–2850-GFP-His) and active wildtype Taspase 1. Inhibition of proteolysis was evaluated by the relative amount of uncleaved substrate. Briefly, 5 μM recombinant substrate were incubated with 200 nM wildtype Taspase 1-His and increasing concentrations of TWAAP0-4 (10 - 100 μM), pre-irradiated with either UV light (365 nm, violet), or green light (520 nm, green), or solvent only. Proteolytic activity in solvent-treated samples was set to 100%, and data from TWAAP-treated samples were normalized accordingly. IC50 values were determined by densitometric quantification of the cleavage bands from the gels shown in Fig. S9, followed by nonlinear curve fitting. These values were also used to generate the summary bar plots shown on the right. Data are shown as the mean ± SD from three independent experiments. Composed with https://BioRender.com.
Figure S8. Photoswitchable TWAAP constructs interfere with Taspase 1’s proteolytic activity.
Cleavage assay utilizing the cleavage site CS2 from the natural substrate MLL (GST -MLL2700-2850-GFP-His, 70 kDa) and active wildtype Taspase 1. Inhibition of proteolysis was evaluated by the relative amount of uncleaved in relation to cleaved substrate (50 kDa and 20 kDa, respectively). Briefly, 5 µM recombinant substrate were incubated with 200 nM wildtype Taspase 1-His and increasing concentrations (10 - 100 µM) of indicated TWAAP irradiated with UV (365 nm, left gel panels) or green light (520 nm, right gel panels). Solvent-treated samples (referred to as untreated, un.) served as reference, and as additional controls, Taspase 1 (-T) was omitted or only Taspase 1 (TASP1) was applied. Representative images of three independent experiments are shown. Composed with […]
Figure S9. Photoswitchable TWAAB constructs interfere with Taspase 1’s proteolytic activity. Cleavage assay utilizing the cleavage site CS2 from the natural substrate MLL (GST -MLL2700-2850-GFP-His, 70 kDa) and active wildtype Taspase 1. Inhibition of proteolysis was evaluated by the relative amount of uncleaved in relation to cleaved substrate (50 kDa and 20 kDa, respectively).
Briefly, 5 µM recombinant substrate were incubated with 200 nM wildtype Taspase 1-His and […]

[1] = Photoisomerization: photostationary states by 1H NMR, switching cycles by UV-vis; type: physicochemical; settings: for PSS E→Z, photostationary state: UV 365 nm; for PSS Z→E, photostationary state: green light 520 nm
Procedure: Tweezer constructs were synthesized as an E/Z mixture, with a strong preference for the thermodynamically stable E isomer. For photoisomerization, UV-vis spectra of TWAAP and TWAB (50 μM in water) were recorded in their initial state. The constructs were then isomerized to the Z isomer with UV light (λ = 365 nm, 1 min) and back to the E isomer with green light (λ = 520 nm, 5 min). Two light sources were used: UV LED HighPower-LED with 3 W of λ = 365 nm (LED Engin Inc., San Jose, California, US) and a LSC-G HighPower-LED with 3 W of λ = 520 nm (Cree Inc., Durham, North Carolina, US). UV-vis spectroscopy was routinely employed to analyze the tweezer constructs, serving as the method of choice to monitor configurational integrity after multiple switching cycles. More than 10 switching cycles were performed without any loss of configurational integrity. The UV-vis spectra were recorded with a JASCO V-650 double-beam spectrophotometer (JASCO).
The photophysical properties of AAP tweezers TWAAP0-4 as well as those of AZO tweezers TWAB1-2 were consistent with previous reports on these photoswitches. […] The two isomers are easily distinguished by the significant difference in their absorption bands (Fig. 2 and Fig. S4a, b). […] Irradiation with green light further increases the concentration of the E isomer, as confirmed by both UV/vis and NMR spectra. The switching process can be repeated for over 10 cycles without loss of configurational integrity or photodegradation of the tweezer. […] (Fig. 2 and Table S1).
Supplementary Table S1. Photostationary states (PSSE→Z and PSSZ→E) and half-life of Z isomers of
respectively. n.d., not determinable.
TW construct PSSE→Z [%] PSSZ→E [%] […]

SMILES	IC50 (wildtype Taspase 1; E isomer) [µM]	IC50 (wildtype Taspase 1; Z isomer) [µM]	Difference in inhibitory activity between E and Z isomers (times greater potency of E isomer) (wildtype Taspase 1)	PSS E→Z, photostationary state [1] [%]	PSS Z→E, photostationary state [1] [%]
Cc1nn(-c2ccc(-c3cn(CCOP(=O)(O)Oc4c5c(c(OP(=O)(O)O)c6c4C4CC6c6cc7c(cc64)C4CC7c6ccccc64)C4CC5c5cc6c(cc54)C4CC6c5ccccc54)nn3)cc2)c(C)c1N=Nc1ccc(-c2ccc(-c3cn(CCOP(=O)(O)Oc4c5c(c(OP(=O)(O)O)c6c4C4CC6c6cc7c(cc64)C4CC7c6ccccc64)C4CC5c5cc6c(cc54)C4CC6c5ccccc54)nn3)cc2)cc1 [TWAAP3]	49.4	41.9	no difference	84	92
Cc1nn(Cc2cn(CCOP(=O)(O)Oc3c4c(c(OP(=O)(O)O)c5c3C3CC5c5cc6c(cc53)C3CC6c5ccccc53)C3CC4c4cc5c(cc43)C3CC5c4ccccc43)nn2)c(C)c1N=Nc1ccc(-c2cn(CCOP(=O)(O)Oc3c4c(c(OP(=O)(O)O)c5c3C3CC5c5cc6c(cc53)C3CC6c5ccccc53)C3CC4c4cc5c(cc43)C3CC5c4ccccc43)nn2)cc1 [TWAAP2]	17.5	25.4	no difference	94	77
Cc1nn(-c2ccc(-n3cc(CCOP(=O)(O)Oc4c5c(c(OP(=O)(O)O)c6c4C4CC6c6cc7c(cc64)C4CC7c6ccccc64)C4CC5c5cc6c(cc54)C4CC6c5ccccc54)nn3)cc2)c(C)c1N=Nc1ccc(-n2cc(CCOP(=O)(O)Oc3c4c(c(OP(=O)(O)O)c5c3C3CC5c5cc6c(cc53)C3CC6c5ccccc53)C3CC4c4cc5c(cc43)C3CC5c4ccccc43)nn2)cc1 [TWAAP0]	25.9	44.6	1.5–1.7 times	87	89
O=P(O)(O)Oc1c2c(c(OP(=O)(O)OCCn3cc(-c4ccc(N=Nc5ccc(-c6cn(CCOP(=O)(O)Oc7c8c(c(OP(=O)(O)O)c9c7C7CC9c9cc%10c(cc97)C7CC%10c9ccccc97)C7CC8c8cc9c(cc87)C7CC9c8ccccc87)nn6)cc5)cc4)nn3)c3c1C1CC3c3cc4c(cc31)C1CC4c3ccccc31)C1CC2c2cc3c(cc21)C1CC3c2ccccc21 [TWAB1]	22.3	17.9	no difference	63	61
Cc1nn(-c2ccc(C#Cc3ccc(-c4cn(CCOP(=O)(O)Oc5c6c(c(OP(=O)(O)O)c7c5C5CC7c7cc8c(cc75)C5CC8c7ccccc75)C5CC6c6cc7c(cc65)C5CC7c6ccccc65)nn4)cc3)cc2)c(C)c1N=Nc1ccc(C#Cc2ccc(-c3cn(CCOP(=O)(O)Oc4c5c(c(OP(=O)(O)O)c6c4C4CC6c6cc7c(cc64)C4CC7c6ccccc64)C4CC5c5cc6c(cc54)C4CC6c5ccccc54)nn3)cc2)cc1 [TWAAP4]	24.7	37.9	1.5–1.7 times	67	97

Reference: article PMC12419465, “Photoresponsive molecular tweezers modulate Taspase 1 activity” (RSC Chemical Biology, 2025)
